Measurements as given in patent US5420276A, “Analogs of oxetanyl purines and pyrimidines” (Abbott Laboratories, priority 1993, dated 1995).
Values after ≈ are worked out from the molar mass of the structure shown.

Legend:
[1] = system: Herpes Simplex Virus Type 1; test: Neutral red dye uptake assay for antiviral activity, HSV-1 in Vero cells; format: cell-based; settings: Human alphaherpesvirus 1, HSV-1, Vero, concentration at which 50% CPE would be observed, read-out: MIC50
Experimental: (§1) Vero cell monolayers were harvested by trypsinization. The number of viable cells per ml. was determined by staining an aliquot with trypan blue and counting in a hemocytometer. Cell densities were adjusted in growth medium to contain 4×10^5 cells/mi. 96-well sterile tissue culture plates were seeded with 100 μl/well of the adjusted cell suspensions, i.e., 4×10^4 cells/well. Seeded plates were incubated overnight at 37° C. with CO2.
(§2) After overnight incubation, monolayers were approximately confluent. The growth medium was removed and the monolayers in each cell were infected with 100 μl of virus diluted in maintenance medium to produce approximately 90% cytopathogenic effect (CPE) after 2 to 3 days incubation. The virus was allowed to adsorb for 1 hour at 37° C. with 4 to 6% CO2. Controls for cell growth were overlayed with virus-free maintenance medium. The maintenance medium containing residual virus was removed.
(§3) The test compounds were dissolved and/or diluted in maintenance medium to the concentration desired for testing and were added to the wells of the plate. Aliquots (100 μl ) of each concentration were added to wells in replicate (duplicate or triplicate). Controls for virus activity were overlayed with drug-free maintenance medium. Replicate wells containing only maintenance medium served as controls for background absorbance levels.
After incubation, the medium was removed from all the wells. 100 μl of neutral red solution was added to each well and the plate was incubated at 37° C. without CO2 for 2 hours. After the 2 hour incubation, the excess neutral red solution was removed. […]
The neutral red stain taken up by the viable cells was extracted by adding 100 μl/well of acidified methanol, pH 1.0. […] The amount of neutral red stain extracted into the methanol was quantified by determining the absorbance at a wavelength of 540 nm.
The percent CPE in virus controls was determined by the following formula: [formula]
The percent CPE in cells infected with virus and treated with the test compound was determined by the following formula: [formula] […]

in vitro = format: cell-based, African green monkey; settings: monkey, vero cells
Experimental: as §1, §2, §3
After incubation, the medium was removed from all the wells. 100 μl of neutral red solution was added to each well and the plate was incubated at 37° C. without CO2 for 2 hours. After the 2 hour incubation, the excess neutral red solution was removed. The plates were washed with 100 μl/well of PBS, pH 7.2 and then the PBS was removed.
The neutral red stain taken up by the viable cells was extracted by adding 100 μl/well of acidified methanol, pH 1.0. (The acidified methanol fixed the cells to the well). The plate was allowed to stand at room temperature for at least 15 minutes to allow for maximum extraction. The amount of neutral red stain extracted into the methanol was quantified by determining the absorbance at a wavelength of 540 nm. […]

HSV-1 (E-377) = test: CPE inhibition assay (MTT), HSV-1 (E-377) in Vero cells; format: cell-based, herpes simplex virus type 1; settings: Human alphaherpesvirus 1, inhibited CPE by 50%
Experimental: Vero cells were pregrown as monolayers in wells of COSTAR 96-well tissue culture plates using suitable cell culture media. Stock viruses were pretitered according to the method of Reed and Muench (Amer. J. Hyg. 27 493 (1938)) and diluted in cell culture medium to yield 32 CCID50 (cell culture infectious dose, 50%) units per 0.1 mL. Antiviral assays were designed to test six concentrations of each compound, from cytotoxic to noncytotoxic levels, in triplicate against each of the challenge viruses in microtiter plate wells containing cell monolayers. To each of the replicate cell cultures were added 0.1 mL of the test-compound solution and 0.1 mL of virus suspension. Two compounds were evaluated per plate. The following controls were included:
(1) Cell controls containing cells+medium;
(2) Untreated, virus-infected cell controls;
(3) Test-compound cytotoxicity controls containing uninfected, test-compound treated cells;
(4) Test-compound color controls-test-compound+medium (no cells); and
(5) Reagent (experiment medium) controls-medium only (no cells).
The covered plates were incubated at 37° C. in a humidified atmosphere containing 2% CO2. When cytopathogenic effect (CPE) in untreated virus control wells reached 100%, 20 μL of 3-(4,5-dimethyl-thiazol-2-yl)-2,5-diphenyl tetrazolium bromide (MTT) (dissolved in PBS at 5 mg/mL) was pipetted into each of the plate wells. The plates were incubated at 37° C. for six hours; then 40 μL of 30% SDS (in 0.02N HCl) was added to each well. After overnight incubation at 37° C., the blue color or the MTT formazan was measured spectrophotometrically at 570 nm. The optical density (OD) value of each culture is a function of the amount of formazan produced which is proportional to the number of viable cells. A computer program was utilized to calculate the percent (CPE) reciprocal of % CPE reduction) of the virus-infected wells and % cell viability of the uninfected test-compound control wells.
The IC50 value is the minimum test-compound concentration (μg/mL) that inhibited CPE by 50% calculated by using a regression analysis program for semilog curve fitting. The TC25 value is the minimum test-compound concentration (μg/mL) that reduced cell viability by 25%.

- IC50 (HSV-1 (E-377)): 0.072 µg/mL (≈ 0.216 µM)
SMILES: O=c1[nH]c(=O)n([C@@H]2O[C@H](CO)[C@H]2CO)cc1C=CBr [Example 44, 1-([2'R, 3'R, 4'S]-3',4'-Bis(hydroxymethyl)-2'-oxetanyl)-5-(2-bromo-1-vinyl)uracil]
- EC50 [1]: 0.09 µg/mL (≈ 0.27 µM)
- CC50 (in vitro): > 1000 µg/mL
